Experimental data from patent US7947262B2, “Use of fullerenes for the treatment of mast cell and basophil-mediated disease” (Virginia Commonwealth University, priority 2006, dated 2011).

Tests used:
[1] = tested on: skin MC; test: Cellular localization by immunohistochemistry with anti-C60 fullerene Ab; type: cell-based, human; details: 4 hours incubation; Polyhydroxy C60 10 ng/ml, N-ethyl-polyamino C60 0.1 μg/ml; FIG. 4
Method: Skin MC (a-d) or PBB (e, f) were incubated with Polyhydroxy C60 (10 ng/ml; a, b, c, f) or N-ethyl-polyamino C60 (0.1 μg/ml; d, f) for 4 hours, washed and cytocentrifuged onto slides. The cytocentrifuge preparations were incubated with anti-C60 fullerene Abs (c, d, e, f) or with an isotype-matched control (a, b) overnight. The cytospins were washed and incubated with a 1:50 dilution of peroxidase-conjugated, anti-mouse Abs and developed with AEC as described. Photographs a and b are the same field taken under phase-contrast (a) or light (b) at a magification of 400×. Pictures c-f were taken under light at a magification of 1000×.
To access the cellular localization if the fullerenes within human MC, these cells were incubated with the water soluble fullerenes and immunohistochemistry was assessed using a fullerene-specific antibody Ab (59;60).

[2] = tested on: PBB; test: Cellular ROS levels after antigen challenge (DCF dye, FACS); type: cell-based, human; details: preincubation, then NIP-BSA 100 ng/ml for 30 min; FIG. 5
Method: (§1) Skin MC (grey) or PBB (white) were sensitized overnight with anti-NIP-IgE (1 μg/ml). Cells were activated for 30 min with NIP-BSA (100 ng/ml) with or without preincubation with the indicated concentrations of fullerenes or N-acetyl-L-cysteine (NAC; 10 μmol). Cellular ROS levels were detected by incubating the cells in the ROS indicating dye 5-(and-6)-carboxy-2′,7′-dichlorodihydrofluorescein diacetate (DCF) followed by FACS analysis. The results are representative of 3 separate MC or PBB cultures. The * or # indicates statistically significant changes in ROS levels for MC and PBB, respectively (p<0.05). A, polyhydroxy C60 fullerenes; B, N-ethyl-polyamine C60 fullerenes.
(§2) To investigate the mechanism by which these fullerenes inhibit allergic mediator release from skin MC and PBB, the effect these compounds have on ROS levels within the cell after antigen stimulation was tested.

[3] = tested on: skin MC; test: as above; type: cell-based, human; details: preincubation, then NIP-BSA 100 ng/ml for 30 min; FIG. 5
Method: as §1, §2

[4] = tested on: IgE-DNP-sensitized mice; test: IgE-induced systemic anaphylaxis in vivo; details: intravenously (50 ng/ml) overnight before DNP-BSA challenge; FIG. 6
Method: FIG. 6. […] Mice (3-5 per group; n=2 separate experiments) were sensitized with or without (Δ) DNP-IgE overnight. The mice were then given vehicle alone (▪) or fullerenes (▾=Poly C60; ●=N-ethyl C60) intravenously (50 ng/ml) overnight. The next morning the animals were challenged with DNP-BSA (100 μg/ml) and the core body temperature measured for up to 30 minutes. Serum histamine levels were measured by ELISA. A, data represented with line graphs; B, data represented with bar graphs.
Systemic anaphylaxis is predominately driven by the activation of MC and PBB through IgE-FceRI crosslinking (45;61). […] Thus, we hypothesized that they could inhibit MC and PBB-induced anaphylaxis in vivo using IgE-sensitized mice. […] In addition, there was a significant reduction in serum histamine levels with the fullerene preincubation.
To test inhibition of mouse anaphylaxis, mice are injected intraperitoneally (IP) with 50 μg of DNP-specific IgE. After approximately 4 to 6 hours the mice (triplicate) are injected with or without different concentrations of fullerenes. The next day cells are injected IP with DNP-HSA (100 μg, Sigma-Aldrich). […] After 30 minutes, mice are sacrificed, and cardiac puncture is used to obtain plasma, from which histamine and other mediators are measured by ELISA. […]

[5] = tested on: skin MC
Method: (§3) A bar graph illustrating the effects of fullerenes on skin MC and PBB viability Cells were cultured with (poly; white bars, N-ethyl; striped bars) or without (black bars) fullerenes (10 mg/ml) for the indicated times. Cells were washed and viability assessed by trypan blue exclusion. Results are representative of 3 experiments from different donors.
(§4) The effects of water soluble fullerene derivatives (Poly; polyhydroxy C60 and N-ethyl; N-ethyl-polyamino C60) on cell growth and viability were tested. Cells were incubated for up to 72 hours and total cell numbers were assessed along with trypan blue exclusion.

[6] = tested on: PBB
Method: as §3, §4

cellular localization of fullerenes [1]	Substance	cellular ROS levels [2]	cellular ROS levels [3]	IgE-induced anaphylaxis [4]	total cell numbers [5]	total cell numbers [6]
localize within the cytoplasm of MC	N-ethyl-polyamino C60	inhibit ROS production	inhibit ROS production	inhibit IgE-induced anaphylaxis	None of the fullerenes demonstrated a significant affect	None of the fullerenes demonstrated a significant affect
localize within the cytoplasm of MC	polyhydroxy C60	inhibit ROS production	inhibit ROS production	inhibit IgE-induced anaphylaxis	None of the fullerenes demonstrated a significant affect	None of the fullerenes demonstrated a significant affect
